PMC6278935 (Pharmacogenetics and genomics, 2012)
Entries after “also recorded” stand apart in the source; their conditions may differ.

Key:
[1] = target: UGT1A3 (Homo sapiens, UniProt P35503); assay: Glucuronidation screen, UGT1A3-over-expressing cell homogenate; assay type: in vitro ADME; conditions: 160 μM CLZ or 320 μM dmCLZ; up to 1 mg cell homogenate; UV and MRM detection
[2] = target: UGT2B10 (Homo sapiens, UniProt P36537); assay: Glucuronidation screen, UGT2B10-over-expressing cell homogenate; assay type: in vitro ADME; conditions: 160 μM CLZ or 320 μM dmCLZ; up to 1 mg cell homogenate; UV and MRM detection
[3] = target: UGT1A6 (Homo sapiens, UniProt P19224); assay: Glucuronidation screen, UGT1A6-over-expressing cell homogenate; assay type: in vitro ADME; conditions: 160 μM CLZ or 320 μM dmCLZ; up to 1 mg cell homogenate
[4] = target: UGT1A7 (Homo sapiens, UniProt Q9HAW7); assay: Glucuronidation screen, UGT1A7-over-expressing cell homogenate; assay type: in vitro ADME; conditions: 160 μM CLZ or 320 μM dmCLZ; up to 1 mg cell homogenate
[5] = target: UGT1A8 (Homo sapiens, UniProt Q9HAW9); assay: Glucuronidation screen, UGT1A8-over-expressing cell homogenate; assay type: in vitro ADME; conditions: 160 μM CLZ or 320 μM dmCLZ; up to 1 mg cell homogenate
[6] = target: UGT1A9 (Homo sapiens, UniProt O60656); assay: Glucuronidation screen, UGT1A9-over-expressing cell homogenate; assay type: in vitro ADME; conditions: 160 μM CLZ or 320 μM dmCLZ; up to 1 mg cell homogenate
[7] = target: UGT1A10 (Homo sapiens, UniProt Q9HAW8); assay: Glucuronidation screen, UGT1A10-over-expressing cell homogenate; assay type: in vitro ADME; conditions: 160 μM CLZ or 320 μM dmCLZ; up to 1 mg cell homogenate
[8] = target: UGT2B4 (Homo sapiens, UniProt P06133); assay: Glucuronidation screen, UGT2B4-over-expressing cell homogenate; assay type: in vitro ADME; conditions: 160 μM CLZ or 320 μM dmCLZ; up to 1 mg cell homogenate
[9] = target: UGT2B7 (Homo sapiens, UniProt P16662); assay: Glucuronidation screen, UGT2B7-over-expressing cell homogenate; assay type: in vitro ADME; conditions: 160 μM CLZ or 320 μM dmCLZ; up to 1 mg cell homogenate
[10] = target: UGT2B11 (Homo sapiens, UniProt O75310); assay: Glucuronidation screen, UGT2B11-over-expressing cell homogenate; assay type: in vitro ADME; conditions: 160 μM CLZ or 320 μM dmCLZ; up to 1 mg cell homogenate
[11] = target: UGT2B15 (Homo sapiens, UniProt P54855); assay: Glucuronidation screen, UGT2B15-over-expressing cell homogenate; assay type: in vitro ADME; conditions: 160 μM CLZ or 320 μM dmCLZ; up to 1 mg cell homogenate
[12] = target: UGT2B17 (Homo sapiens, UniProt O75795); assay: Glucuronidation screen, UGT2B17-over-expressing cell homogenate; assay type: in vitro ADME; conditions: 160 μM CLZ or 320 μM dmCLZ; up to 1 mg cell homogenate
[13] = cited from earlier work
[14] = target: T1, UGT1A1 (Homo sapiens, UniProt P22309); assay: Glucuronidation by UGT1A1-over-expressing HEK 293 cell homogenate; conditions: 160 μM CLZ or 320 μM dmCLZ; up to 1 mg cell homogenate; UV and MRM detection
T1 sequence (P22309 26-533): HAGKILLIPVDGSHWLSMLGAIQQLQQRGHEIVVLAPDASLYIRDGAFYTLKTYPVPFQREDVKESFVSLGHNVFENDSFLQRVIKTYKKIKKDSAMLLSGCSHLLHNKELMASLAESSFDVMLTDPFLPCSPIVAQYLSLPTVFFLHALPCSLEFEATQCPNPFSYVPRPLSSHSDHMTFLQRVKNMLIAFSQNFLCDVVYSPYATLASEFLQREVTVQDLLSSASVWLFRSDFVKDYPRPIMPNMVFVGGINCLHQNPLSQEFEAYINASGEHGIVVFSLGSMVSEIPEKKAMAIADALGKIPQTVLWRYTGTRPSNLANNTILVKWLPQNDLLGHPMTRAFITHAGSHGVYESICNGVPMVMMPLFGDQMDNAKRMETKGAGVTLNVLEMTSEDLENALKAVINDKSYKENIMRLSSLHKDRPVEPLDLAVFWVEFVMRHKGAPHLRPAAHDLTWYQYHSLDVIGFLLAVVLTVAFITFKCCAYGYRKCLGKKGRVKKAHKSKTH

[15] = target: T2, UGT1A4^24Pro/48Leu (Homo sapiens, UniProt P22310); assay: Glucuronidation by wild-type UGT1A4-over-expressing HEK 293 cell homogenate; conditions: 160 μM CLZ or 320 μM dmCLZ; up to 1 mg cell homogenate; UV and MRM detection
T2 sequence (P22310 29-534): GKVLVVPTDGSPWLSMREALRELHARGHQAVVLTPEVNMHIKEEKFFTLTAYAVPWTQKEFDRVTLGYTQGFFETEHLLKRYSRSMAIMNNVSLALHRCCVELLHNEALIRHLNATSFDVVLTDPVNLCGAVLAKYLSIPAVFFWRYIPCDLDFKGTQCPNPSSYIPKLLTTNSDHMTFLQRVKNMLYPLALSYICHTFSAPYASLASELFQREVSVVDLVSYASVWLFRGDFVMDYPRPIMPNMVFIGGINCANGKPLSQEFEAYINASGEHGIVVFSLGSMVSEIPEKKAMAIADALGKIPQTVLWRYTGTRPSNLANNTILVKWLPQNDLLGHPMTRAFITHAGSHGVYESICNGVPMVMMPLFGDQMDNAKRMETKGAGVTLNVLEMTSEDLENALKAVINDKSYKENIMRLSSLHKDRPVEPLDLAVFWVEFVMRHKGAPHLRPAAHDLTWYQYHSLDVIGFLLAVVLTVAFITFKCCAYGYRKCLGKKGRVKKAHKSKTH

[16] = target: T3, UGT1A4^24Thr/48Leu (Homo sapiens, UniProt P22310); assay: Glucuronidation by UGT1A4 24Thr/48Leu variant-over-expressing cell homogenate; conditions: vs wild-type UGT1A4^24Pro/48Leu
T3 sequence (P22310 29-534): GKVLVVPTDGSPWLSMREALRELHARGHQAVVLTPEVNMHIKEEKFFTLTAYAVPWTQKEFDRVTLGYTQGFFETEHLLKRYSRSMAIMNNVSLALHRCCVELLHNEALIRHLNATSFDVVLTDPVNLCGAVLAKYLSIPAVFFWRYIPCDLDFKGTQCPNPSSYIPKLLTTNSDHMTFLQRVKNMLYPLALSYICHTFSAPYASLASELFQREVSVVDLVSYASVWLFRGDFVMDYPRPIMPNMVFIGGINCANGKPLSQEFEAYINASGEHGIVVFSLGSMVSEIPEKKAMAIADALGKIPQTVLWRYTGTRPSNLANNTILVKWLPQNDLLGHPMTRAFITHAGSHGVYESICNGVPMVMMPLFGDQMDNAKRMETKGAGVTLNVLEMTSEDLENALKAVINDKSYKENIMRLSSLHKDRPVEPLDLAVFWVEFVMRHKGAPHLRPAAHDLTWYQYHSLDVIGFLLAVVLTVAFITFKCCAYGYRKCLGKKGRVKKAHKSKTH

[17] = target: T4, UGT1A4^24Pro/48Val (Homo sapiens, UniProt P22310, L48V); assay: Glucuronidation by UGT1A4 24Pro/48Val variant-over-expressing cell homogenate
T4 sequence (P22310 29-534 L48V): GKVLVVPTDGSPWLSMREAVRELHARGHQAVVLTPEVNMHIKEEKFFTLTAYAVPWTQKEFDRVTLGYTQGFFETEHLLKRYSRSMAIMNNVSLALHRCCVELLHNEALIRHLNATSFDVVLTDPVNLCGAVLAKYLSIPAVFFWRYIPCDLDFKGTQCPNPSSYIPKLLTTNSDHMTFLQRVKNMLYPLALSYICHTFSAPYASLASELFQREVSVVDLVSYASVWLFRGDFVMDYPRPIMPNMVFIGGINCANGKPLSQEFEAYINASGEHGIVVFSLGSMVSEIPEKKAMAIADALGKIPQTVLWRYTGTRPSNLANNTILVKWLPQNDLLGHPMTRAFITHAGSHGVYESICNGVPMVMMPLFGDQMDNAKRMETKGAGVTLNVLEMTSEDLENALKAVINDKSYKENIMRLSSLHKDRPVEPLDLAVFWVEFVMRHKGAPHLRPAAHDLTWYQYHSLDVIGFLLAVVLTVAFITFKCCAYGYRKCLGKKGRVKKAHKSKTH

[18] = target: T5, UGT1A4 (Homo sapiens, UniProt P22310); assay: Inhibition of glucuronide formation in UGT1A4-over-expressing cell homogenates; assay type: biochemical; conditions: 10 μM hecogenin
T5 sequence (P22310 29-534): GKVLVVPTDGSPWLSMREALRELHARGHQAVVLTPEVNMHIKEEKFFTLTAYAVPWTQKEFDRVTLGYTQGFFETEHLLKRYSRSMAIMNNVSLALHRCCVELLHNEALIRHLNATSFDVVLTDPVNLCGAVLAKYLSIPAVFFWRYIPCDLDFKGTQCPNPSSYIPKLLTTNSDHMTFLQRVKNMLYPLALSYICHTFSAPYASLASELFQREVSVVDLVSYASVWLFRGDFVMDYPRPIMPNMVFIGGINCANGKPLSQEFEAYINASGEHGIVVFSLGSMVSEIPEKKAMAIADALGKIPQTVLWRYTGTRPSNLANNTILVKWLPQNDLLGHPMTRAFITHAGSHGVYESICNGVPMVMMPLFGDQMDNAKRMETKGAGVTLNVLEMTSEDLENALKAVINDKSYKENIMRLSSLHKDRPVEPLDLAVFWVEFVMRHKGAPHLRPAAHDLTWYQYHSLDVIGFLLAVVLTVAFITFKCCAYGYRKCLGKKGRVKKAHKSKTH

[19] = test system: Human liver microsomes (HLM); assay type: biochemical; conditions: 10 μM hecogenin; 160 μM CLZ; HLM
[20] = substrate: Clc1ccc2c(c1)N=C(N1CCNCC1)c1ccccc1N2; assay: cells, lysate or membranes named; conditions: other: substrate dmCLZ

Sequence of UGT1A3 (P35503 29-534): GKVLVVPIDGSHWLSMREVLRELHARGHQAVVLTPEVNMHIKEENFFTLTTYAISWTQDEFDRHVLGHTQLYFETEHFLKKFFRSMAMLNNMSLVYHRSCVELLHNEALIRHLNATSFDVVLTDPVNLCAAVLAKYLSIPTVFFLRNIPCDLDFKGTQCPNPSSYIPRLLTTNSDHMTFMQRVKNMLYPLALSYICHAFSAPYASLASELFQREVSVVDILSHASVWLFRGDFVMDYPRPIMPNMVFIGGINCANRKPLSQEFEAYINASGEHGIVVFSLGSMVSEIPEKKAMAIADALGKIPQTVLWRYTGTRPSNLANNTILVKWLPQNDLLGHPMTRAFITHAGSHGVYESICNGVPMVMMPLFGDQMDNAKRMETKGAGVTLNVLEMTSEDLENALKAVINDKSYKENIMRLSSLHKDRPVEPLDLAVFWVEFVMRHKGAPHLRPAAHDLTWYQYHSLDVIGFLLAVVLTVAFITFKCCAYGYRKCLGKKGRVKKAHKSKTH
Sequence of UGT2B10 (P36537 24-528): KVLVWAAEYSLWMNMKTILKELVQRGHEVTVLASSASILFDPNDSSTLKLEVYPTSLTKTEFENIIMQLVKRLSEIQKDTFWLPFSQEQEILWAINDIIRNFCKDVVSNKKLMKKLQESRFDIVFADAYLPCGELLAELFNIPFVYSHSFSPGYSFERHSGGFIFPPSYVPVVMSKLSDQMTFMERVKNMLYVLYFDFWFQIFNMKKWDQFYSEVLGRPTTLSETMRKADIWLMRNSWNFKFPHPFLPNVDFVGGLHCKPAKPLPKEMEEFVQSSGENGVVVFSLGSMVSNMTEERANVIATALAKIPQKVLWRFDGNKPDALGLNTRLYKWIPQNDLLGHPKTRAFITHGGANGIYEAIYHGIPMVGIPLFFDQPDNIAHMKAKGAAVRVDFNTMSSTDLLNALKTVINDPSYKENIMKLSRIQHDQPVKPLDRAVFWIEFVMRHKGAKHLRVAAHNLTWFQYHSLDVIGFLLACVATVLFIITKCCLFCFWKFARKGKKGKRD
Sequence of UGT1A9 (O60656 26-530): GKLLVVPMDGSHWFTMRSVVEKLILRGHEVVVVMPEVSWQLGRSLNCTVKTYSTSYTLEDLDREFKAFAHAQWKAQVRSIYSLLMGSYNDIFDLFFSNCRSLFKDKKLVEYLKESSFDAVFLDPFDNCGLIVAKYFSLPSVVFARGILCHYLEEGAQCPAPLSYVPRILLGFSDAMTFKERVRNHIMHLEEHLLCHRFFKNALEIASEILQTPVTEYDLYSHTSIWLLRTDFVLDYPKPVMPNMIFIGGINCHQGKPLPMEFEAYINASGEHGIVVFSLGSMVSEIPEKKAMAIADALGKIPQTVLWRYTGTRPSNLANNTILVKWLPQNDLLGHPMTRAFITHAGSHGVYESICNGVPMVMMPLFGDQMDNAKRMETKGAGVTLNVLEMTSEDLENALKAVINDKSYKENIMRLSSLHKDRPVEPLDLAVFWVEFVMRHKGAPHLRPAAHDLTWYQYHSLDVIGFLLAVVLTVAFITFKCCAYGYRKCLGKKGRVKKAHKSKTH
Sequence of UGT1A8 (Q9HAW9 26-530): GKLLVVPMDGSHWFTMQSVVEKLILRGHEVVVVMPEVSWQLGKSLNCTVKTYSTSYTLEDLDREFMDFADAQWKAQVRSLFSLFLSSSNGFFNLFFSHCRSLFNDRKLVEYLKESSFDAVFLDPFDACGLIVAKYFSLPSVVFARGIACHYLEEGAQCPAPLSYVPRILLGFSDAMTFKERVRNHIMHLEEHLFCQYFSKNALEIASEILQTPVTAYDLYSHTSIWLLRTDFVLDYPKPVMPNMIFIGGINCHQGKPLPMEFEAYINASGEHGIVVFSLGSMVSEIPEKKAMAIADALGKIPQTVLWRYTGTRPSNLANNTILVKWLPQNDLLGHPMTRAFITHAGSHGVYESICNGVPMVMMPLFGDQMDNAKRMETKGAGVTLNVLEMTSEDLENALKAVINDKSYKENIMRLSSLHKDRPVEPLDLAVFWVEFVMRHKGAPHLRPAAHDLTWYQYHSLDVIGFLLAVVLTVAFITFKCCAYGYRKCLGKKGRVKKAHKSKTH
Sequence of UGT2B17 (O75795 24-530): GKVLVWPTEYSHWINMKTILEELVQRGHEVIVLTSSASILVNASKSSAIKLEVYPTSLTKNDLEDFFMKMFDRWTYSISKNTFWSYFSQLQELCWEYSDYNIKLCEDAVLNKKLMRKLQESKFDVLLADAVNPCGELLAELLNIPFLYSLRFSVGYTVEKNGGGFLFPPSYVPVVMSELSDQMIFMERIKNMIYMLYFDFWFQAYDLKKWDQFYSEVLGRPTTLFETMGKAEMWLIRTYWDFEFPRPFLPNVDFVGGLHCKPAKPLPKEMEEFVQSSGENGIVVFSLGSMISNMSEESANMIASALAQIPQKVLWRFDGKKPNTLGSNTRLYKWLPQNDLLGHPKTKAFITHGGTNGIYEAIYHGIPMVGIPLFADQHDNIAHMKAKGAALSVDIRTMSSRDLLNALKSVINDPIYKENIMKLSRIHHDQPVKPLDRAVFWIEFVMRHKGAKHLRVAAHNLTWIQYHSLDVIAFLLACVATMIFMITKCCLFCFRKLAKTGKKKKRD
Sequence of UGT2B11 (O75310 22-529): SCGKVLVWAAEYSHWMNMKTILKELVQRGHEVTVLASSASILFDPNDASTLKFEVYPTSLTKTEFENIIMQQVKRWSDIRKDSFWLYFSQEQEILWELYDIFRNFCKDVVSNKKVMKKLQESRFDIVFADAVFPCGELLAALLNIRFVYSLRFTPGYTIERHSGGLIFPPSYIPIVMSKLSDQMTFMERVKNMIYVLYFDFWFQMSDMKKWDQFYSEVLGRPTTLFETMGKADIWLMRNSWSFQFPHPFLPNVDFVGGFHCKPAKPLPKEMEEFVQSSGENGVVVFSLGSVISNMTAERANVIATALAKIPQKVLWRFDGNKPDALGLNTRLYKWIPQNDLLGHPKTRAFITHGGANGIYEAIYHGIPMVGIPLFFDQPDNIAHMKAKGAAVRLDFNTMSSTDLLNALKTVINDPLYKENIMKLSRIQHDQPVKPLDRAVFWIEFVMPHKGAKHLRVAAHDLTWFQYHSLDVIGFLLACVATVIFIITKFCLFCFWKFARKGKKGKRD
Sequence of UGT1A6 (P19224 27-532): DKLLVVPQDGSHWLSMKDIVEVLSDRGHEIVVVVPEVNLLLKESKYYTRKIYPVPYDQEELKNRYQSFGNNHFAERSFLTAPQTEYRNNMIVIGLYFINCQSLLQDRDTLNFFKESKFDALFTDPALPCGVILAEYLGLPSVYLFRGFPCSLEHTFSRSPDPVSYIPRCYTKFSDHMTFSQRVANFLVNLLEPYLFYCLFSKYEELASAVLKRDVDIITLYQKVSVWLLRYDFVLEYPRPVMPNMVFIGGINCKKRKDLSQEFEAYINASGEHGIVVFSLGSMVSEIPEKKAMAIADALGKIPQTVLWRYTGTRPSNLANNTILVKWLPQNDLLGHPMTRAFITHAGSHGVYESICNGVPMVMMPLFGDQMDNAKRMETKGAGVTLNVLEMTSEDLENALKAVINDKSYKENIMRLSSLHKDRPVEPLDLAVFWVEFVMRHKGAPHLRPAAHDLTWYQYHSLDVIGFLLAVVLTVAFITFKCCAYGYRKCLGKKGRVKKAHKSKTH
Sequence of UGT2B15 (P54855 24-530): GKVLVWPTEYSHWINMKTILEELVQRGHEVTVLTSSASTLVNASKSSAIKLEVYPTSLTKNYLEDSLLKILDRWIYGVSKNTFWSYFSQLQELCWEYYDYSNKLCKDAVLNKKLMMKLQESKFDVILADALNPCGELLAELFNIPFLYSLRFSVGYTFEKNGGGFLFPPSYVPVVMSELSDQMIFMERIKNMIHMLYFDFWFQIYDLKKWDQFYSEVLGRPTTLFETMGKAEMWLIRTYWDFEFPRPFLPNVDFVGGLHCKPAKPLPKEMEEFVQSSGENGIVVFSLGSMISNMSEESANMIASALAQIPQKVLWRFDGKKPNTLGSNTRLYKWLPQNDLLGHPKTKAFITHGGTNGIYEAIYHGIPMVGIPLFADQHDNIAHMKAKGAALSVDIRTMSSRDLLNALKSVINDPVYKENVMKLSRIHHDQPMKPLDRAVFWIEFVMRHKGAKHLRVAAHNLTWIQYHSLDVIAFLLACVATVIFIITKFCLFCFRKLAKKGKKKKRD
Sequence of UGT2B4 (P06133 24-528): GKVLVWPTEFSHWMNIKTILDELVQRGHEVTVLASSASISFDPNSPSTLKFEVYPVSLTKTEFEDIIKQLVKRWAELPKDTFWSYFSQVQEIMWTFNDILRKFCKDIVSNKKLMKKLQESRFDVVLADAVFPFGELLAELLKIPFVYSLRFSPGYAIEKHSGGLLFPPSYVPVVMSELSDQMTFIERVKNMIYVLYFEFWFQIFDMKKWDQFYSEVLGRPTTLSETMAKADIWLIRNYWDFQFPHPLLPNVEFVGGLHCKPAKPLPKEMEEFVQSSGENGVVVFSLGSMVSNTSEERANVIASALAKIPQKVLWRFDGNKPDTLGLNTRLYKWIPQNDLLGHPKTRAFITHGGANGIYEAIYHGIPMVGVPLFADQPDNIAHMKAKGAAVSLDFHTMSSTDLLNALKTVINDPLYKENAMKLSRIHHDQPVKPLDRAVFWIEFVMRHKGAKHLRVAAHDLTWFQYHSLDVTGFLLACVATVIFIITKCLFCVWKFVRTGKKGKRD

CN1CCN(C2=Nc3cc(Cl)ccc3Nc3ccccc32)CC1 [CLZ, Clozapine, reference compound]
detectable glucuronidation activity (screen) [1]: detectable levels of activity; also recorded: barely above the limits of detection
detectable glucuronidation activity (screen) [2]: detectable levels of activity; also recorded: barely above the limits of detection
detectable glucuronidation activity (screen) [3]: None
detectable glucuronidation activity (screen) [4]: None
detectable glucuronidation activity (screen) [5]: None
detectable glucuronidation activity (screen) [6]: None
detectable glucuronidation activity (screen) [7]: None
detectable glucuronidation activity (screen) [8]: None
detectable glucuronidation activity (screen) [9]: None
detectable glucuronidation activity (screen) [10]: None
detectable glucuronidation activity (screen) [11]: None
detectable glucuronidation activity (screen) [12]: None
administered dose being metabolized [13]: 97%
patients who fail to respond to CLZ treatment despite adequate dosing [13]: Approximately 30%
CLZ and dmCLZ glucuronides, share of all recovered metabolites in urine and bile ([13]; human subjects taking CLZ): 33–38%
plasma concentrations (inter-individual variability for a given dose of CLZ) ([13]; patients): 3 to 1507 ng/mL
detectable glucuronidation activity (screen) [14]: detectable levels of activity
detectable glucuronidation activity (screen) [15]: detectable levels of activity
decrease in Vmax, CLZ-5-N-glucuronide formation [16]: 21%
lower Vmax/KM, CLZ-5-N-glucuronide formation [16]: 20%
decrease in KM, CLZ-5-N-glucuronide formation ([17]; vs UGT1A4^24Thr/48Leu variant): 56%
decrease in KM, CLZ-5-N-glucuronide formation ([17]; vs wild-type UGT1A4^24Pro/48Leu): 58%

hecogenin
inhibition of CLZ-5-N-glucuronide formation ([18]; 160 μM CLZ): 77%
inhibition of CLZ-N^+-glucuronide formation ([18]; 160 μM CLZ): 82%
inhibition of dmCLZ-5-N-glucuronide formation ([18]; 320 μM dmCLZ): 81%
inhibition of CLZ-5-N-glucuronide formation [19]: 89 ± 3%
inhibition of CLZ-N^+-glucuronide formation [19]: 46 ± 5%

B1: UGT1A4^24Pro/48Leu (Homo sapiens) (protein)
chain: GKVLVVPTDGSPWLSMREALRELHARGHQAVVLTPEVNMHIKEEKFFTLTAYAVPWTQKEFDRVTLGYTQGFFETEHLLKRYSRSMAIMNNVSLALHRCCVELLHNEALIRHLNATSFDVVLTDPVNLCGAVLAKYLSIPAVFFWRYIPCDLDFKGTQCPNPSSYIPKLLTTNSDHMTFLQRVKNMLYPLALSYICHTFSAPYASLASELFQREVSVVDLVSYASVWLFRGDFVMDYPRPIMPNMVFIGGINCANGKPLSQEFEAYINASGEHGIVVFSLGSMVSEIPEKKAMAIADALGKIPQTVLWRYTGTRPSNLANNTILVKWLPQNDLLGHPMTRAFITHAGSHGVYESICNGVPMVMMPLFGDQMDNAKRMETKGAGVTLNVLEMTSEDLENALKAVINDKSYKENIMRLSSLHKDRPVEPLDLAVFWVEFVMRHKGAPHLRPAAHDLTWYQYHSLDVIGFLLAVVLTVAFITFKCCAYGYRKCLGKKGRVKKAHKSKTH
Km [20]: 379 ± 46 µM
Vmax [20]: 0.01 µmol/min/mg
Vmax/Km [20]: 28 µL/min/mg
